US10414788B2, “Substituted thienopyrrolopyrimidine ribonucleosides for therapeutic use” (USTAV ORGANICKE CHEMIE A BIOCHEMIE AV CR, V.V.I., priority 2016, dated 2019)

How the values were obtained:
[1] = test system: K562-Tax (human acute myeloid leukemia, paclitaxel resistant subline); test: MTT in vitro cytotoxic test, K562-TAX; format: cell-based; details: K562-TAX cells (paclitaxel resistant)
From the text: (§1) MTT test was used for in vitro evaluation of antitumor activities of newly synthesized compounds on cell lines derived from normal tissues or tumors. Specifically, cell lines K562 (human […]), K562-Tax (human […] myeloid leukemia, paclitaxel resistant subline, overexpress multiple drug resistant protein PgP), CEM (T-lymfoblastic leukemia), CEM-DNR-bulk (T-lymfoblastic leukemia, doxorubicin resistant), A549 (human lung adenocarcinoma), HCT116 wt (human colorectal cancer, wild-type), HCT116p53−/−(human colorectal cancer, mutant p53) a U2OS (human bone osteosarcoma) were used.
(§2) Express characteristics, susceptibility profiles of classic antitumor drugs as well as methodology of cytotoxic MTT test have been repeatedly published {ref.:Noskova, V.; Dzubak, P.; Kuzmina, G.; Ludkova, A.; Stehlik, D.; Trojanec, R.; Janostakova, A.; Korinkova, G.; Mihal, V.; Hajduch, M., Neoplasma 2002, 49, 418-425}.

[2] = test system: K562 (human acute myeloid leukemia); test: MTT in vitro cytotoxic test, K562; format: cell-based; details: K562 cells
From the text: as §1, §2

[3] = test system: A549 (human lung adenocarcinoma); test: MTT in vitro cytotoxic test, A549; format: cell-based; details: A549 cells
From the text: as §1, §2

[4] = test system: U2OS (human bone osteosarcoma); test: MTT in vitro cytotoxic test, U2OS; format: cell-based; details: U2OS cells
From the text: as §1, §2

[5] = test system: HCT116p53−/− (human colorectal cancer, mutant p53); test: MTT in vitro cytotoxic test, HCT116p53; format: cell-based; details: HCT116p53−/− cells
From the text: as §1, §2

[6] = test system: HCT116 wt (human colorectal cancer, wild-type); test: MTT in vitro cytotoxic test, HCT116; format: cell-based; details: HCT-116, HCT116 cells (p53 wild type)
From the text: as §1, §2

[7] = test system: CEM-DNR-bulk (T-lymfoblastic leukemia, doxorubicin resistant); test: MTT in vitro cytotoxic test, CEM-DNR; format: cell-based; details: Homo sapiens, CEM-DNR cells (doxorubicin resistant)
From the text: as §1, §2

[8] = test system: CCRF-CEM (CEM, T-lymfoblastic leukemia); test: MTT in vitro cytotoxic test, CCRF-CEM; format: cell-based; details: Homo sapiens, CCRF-CEM cells
From the text: as §1, §2

[9] = test system: cancer cell lines of various histogenetic origin; test: In vitro cytotoxic test, summary over cancer cell lines; format: cell-based, human; details: text summary of Table 4
From the text: as §1, §2

OC[C@H]1O[C@@H](n2c3ncnc(-c4ccco4)c3c3ccsc32)[C@H](O)[C@@H]1O [Compound 1a, 4-(Furan-2-yl)-8-(β-D-ribofuranosyl)-8H-thieno[3′,2′:4,5]pyrrolo[2,3-d]pyrimidine]
IC50 [1]: 25 to 50 µM | IC50 [2]: 25 to 50 µM | IC50 [3]: 25 to 50 µM | IC50 [4]: 25 to 50 µM | IC50 [5]: 25 to 50 µM | IC50 [6]: 25 to 50 µM | IC50 [7]: 25 to 50 µM | IC50 [8]: 25 to 50 µM

OC[C@H]1O[C@@H](n2c3ncnc(-c4ccoc4)c3c3ccsc32)[C@H](O)[C@@H]1O [Compound 1b, 4-(Furan-3-yl)-8-(β-D-ribofuranosyl)-8H-thieno[3′,2′:4,5]pyrrolo[2,3-d]pyrimidine]
IC50 [1]: 25 to 50 µM | IC50 [2]: 25 to 50 µM | IC50 [3]: 25 to 50 µM | IC50 [4]: 25 to 50 µM | IC50 [5]: 25 to 50 µM | IC50 [6]: 25 to 50 µM | IC50 [7]: 25 to 50 µM | IC50 [8]: 25 to 50 µM

OC[C@H]1O[C@@H](n2c3ncnc(-c4cc5ccccc5o4)c3c3ccsc32)[C@H](O)[C@@H]1O [Compound 1c, 4-(Benzofuran-2-yl)-8-(β-D-ribofuranosyl)-8H-thieno[3′,2′:4,5]pyrrolo[2,3-d]pyrimidine]
IC50 [1]: 10 to 25 µM | IC50 [2]: 25 to 50 µM | IC50 [3]: 25 to 50 µM | IC50 [4]: 25 to 50 µM | IC50 values (range in words) [9]: micromolar range | IC50 [5]: 25 to 50 µM | IC50 [6]: 25 to 50 µM | IC50 [7]: 10 to 25 µM | IC50 [8]: 10 to 25 µM

Cc1ncnc2c1c1ccsc1n2[C@@H]1O[C@H](CO)[C@@H](O)[C@H]1O [Compound 1d, 4-Methyl-8-(β-D-ribofuranosyl)-8H-thieno[3′,2′:4,5]pyrrolo[2,3-d]pyrimidine]
IC50 [1]: 0.9 to 10 µM | IC50 [2]: 0.01 to 0.2 µM | melting point: 126 to 128 °C | IC50 [3]: 0.2 to 0.9 µM | IC50 [4]: 0.01 to 0.2 µM | IC50 values (range in words) [9]: sub-micromolar to nanomolar | IC50 [5]: 0.2 to 0.9 µM | IC50 [6]: 0.2 to 0.9 µM | IC50 [7]: 25 to 50 µM | IC50 [8]: 0.01 to 0.2 µM

CN(C)c1ncnc2c1c1ccsc1n2[C@@H]1O[C@H](CO)[C@@H](O)[C@H]1O [Compound 1e, 4-(N,N-dimethylamino)-8-(β-D-ribofuranosyl)-8H-thieno[3′,2′:4,5]pyrrolo[2,3-d]pyrimidine]
IC50 [1]: 25 to 50 µM | IC50 [2]: 25 to 50 µM | melting point: 117 °C | IC50 [3]: 25 to 50 µM | IC50 [4]: 25 to 50 µM | IC50 [5]: 25 to 50 µM | IC50 [6]: 25 to 50 µM | IC50 [7]: 25 to 50 µM | IC50 [8]: 25 to 50 µM

Nc1ncnc2c1c1ccsc1n2[C@@H]1O[C@H](CO)[C@@H](O)[C@H]1O [Compound 1f, 4-Amino-8-(β-D-ribofuranosyl)-8H-thieno[3′,2′:4,5]pyrrolo[2,3-d]pyrimidine]
IC50 [1]: 0.2 to 0.9 µM | IC50 [2]: 25 to 50 µM | melting point: 98 °C | IC50 [3]: 25 to 50 µM | IC50 [4]: 0.2 to 0.9 µM | IC50 values (range in words) [9]: micromolar range | IC50 [5]: 0.9 to 10 µM | IC50 [6]: 25 to 50 µM | IC50 [7]: 25 to 50 µM | IC50 [8]: 0.2 to 0.9 µM

COc1ncnc2c1c1ccsc1n2[C@@H]1O[C@H](CO)[C@@H](O)[C@H]1O [Compound 1g, 4-Methoxy-8-(β-D-ribofuranosyl)-8H-thieno[3′,2′:4,5]pyrrolo[2,3-d]pyrimidine]
IC50 [1]: 10 to 25 µM | IC50 [2]: 0.2 to 0.9 µM | melting point: 159 to 160 °C | IC50 [3]: 0.9 to 10 µM | IC50 [4]: 0.01 to 0.2 µM | IC50 values (range in words) [9]: sub-micromolar to nanomolar | IC50 [5]: 0.2 to 0.9 µM | IC50 [6]: 0.2 to 0.9 µM | IC50 [7]: 25 to 50 µM | IC50 [8]: 0.01 to 0.2 µM

CSc1ncnc2c1c1ccsc1n2[C@@H]1O[C@H](CO)[C@@H](O)[C@H]1O [Compound 1h, 4-(Methylsulfanyl)-8-(β-D-ribofuranosyl)-8H-thieno[3′,2′:4,5]pyrrolo[2,3-d]pyrimidine]
IC50 [1]: 10 to 25 µM | IC50 [2]: 0.2 to 0.9 µM | melting point: 148 to 152 °C | IC50 [3]: 0.2 to 0.9 µM | IC50 [4]: 0.01 to 0.2 µM | IC50 values (range in words) [9]: sub-micromolar to nanomolar | IC50 [5]: 0.2 to 0.9 µM | IC50 [6]: 0.01 to 0.2 µM | IC50 [7]: 25 to 50 µM | IC50 [8]: 0.01 to 0.2 µM
